# Measurements from article PMC5378611 (Drug testing and analysis, 2017).
# Like-named read-outs stand apart in the source and are kept apart here.
# Tests used:
# [1] = biological target: serotonin transporters (SERT) (Rattus norvegicus, UniProt P31652); experiment: [3H]serotonin uptake inhibition via SERT in rat brain synaptosomes; type: cell-based
# [2] = cited from earlier work
# DAT = details: read-out: binding affinity toward DAT IC50; [3H]WIN-35,428; cited from earlier work
# [3] = biological target: norepinephrine transporters (NET) (Rattus norvegicus, UniProt Q63380); experiment: [3H]norepinephrine uptake inhibition via NET in rat brain synaptosomes; type: cell-based; details: times less potent, from IC50 values
# [4] = biological target: dopamine transporters (DAT) (Rattus norvegicus, UniProt P23977); experiment: [3H]dopamine uptake inhibition via DAT in rat brain synaptosomes; type: cell-based
# [5] = read-out: [3H]5-HT uptake via SERT IC50, rat brain synaptosomes, 5 nM [3H]serotonin, mean ± SD, n = 3
# serotonin transporters (SERT), sequence (P31652 whole entry): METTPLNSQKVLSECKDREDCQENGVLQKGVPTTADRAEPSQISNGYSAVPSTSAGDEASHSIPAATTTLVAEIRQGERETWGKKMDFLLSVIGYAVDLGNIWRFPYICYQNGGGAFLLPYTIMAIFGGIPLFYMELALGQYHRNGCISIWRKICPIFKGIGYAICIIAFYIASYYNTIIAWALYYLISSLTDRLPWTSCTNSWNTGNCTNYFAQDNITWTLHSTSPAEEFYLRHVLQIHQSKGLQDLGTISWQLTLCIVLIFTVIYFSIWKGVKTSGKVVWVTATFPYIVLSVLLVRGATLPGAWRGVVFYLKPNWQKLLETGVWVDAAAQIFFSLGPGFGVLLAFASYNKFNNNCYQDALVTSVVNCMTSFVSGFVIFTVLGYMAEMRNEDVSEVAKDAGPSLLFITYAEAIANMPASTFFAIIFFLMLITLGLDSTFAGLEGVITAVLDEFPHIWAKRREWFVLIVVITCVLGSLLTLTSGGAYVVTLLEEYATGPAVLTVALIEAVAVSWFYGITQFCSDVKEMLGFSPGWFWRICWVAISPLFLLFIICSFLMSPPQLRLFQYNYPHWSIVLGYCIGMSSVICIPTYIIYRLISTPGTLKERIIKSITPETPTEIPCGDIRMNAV
# dopamine transporters (DAT), sequence (P23977 whole entry): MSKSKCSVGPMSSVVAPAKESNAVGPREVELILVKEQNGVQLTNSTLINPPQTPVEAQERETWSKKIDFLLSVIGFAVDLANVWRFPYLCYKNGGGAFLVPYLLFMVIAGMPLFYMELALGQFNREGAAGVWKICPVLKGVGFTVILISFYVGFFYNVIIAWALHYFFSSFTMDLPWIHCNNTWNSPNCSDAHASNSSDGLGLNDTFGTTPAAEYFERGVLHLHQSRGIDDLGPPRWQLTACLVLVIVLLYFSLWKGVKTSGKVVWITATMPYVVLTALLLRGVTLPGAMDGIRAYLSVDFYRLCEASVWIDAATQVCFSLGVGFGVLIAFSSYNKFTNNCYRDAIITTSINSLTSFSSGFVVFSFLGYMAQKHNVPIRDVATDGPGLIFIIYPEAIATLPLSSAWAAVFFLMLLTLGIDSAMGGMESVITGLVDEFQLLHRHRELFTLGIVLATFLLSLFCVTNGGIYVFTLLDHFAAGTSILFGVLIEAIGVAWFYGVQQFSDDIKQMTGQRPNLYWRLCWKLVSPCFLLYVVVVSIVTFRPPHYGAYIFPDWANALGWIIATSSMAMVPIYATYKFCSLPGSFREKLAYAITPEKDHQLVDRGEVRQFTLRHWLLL
# norepinephrine transporters (NET), sequence (Q63380 1-617): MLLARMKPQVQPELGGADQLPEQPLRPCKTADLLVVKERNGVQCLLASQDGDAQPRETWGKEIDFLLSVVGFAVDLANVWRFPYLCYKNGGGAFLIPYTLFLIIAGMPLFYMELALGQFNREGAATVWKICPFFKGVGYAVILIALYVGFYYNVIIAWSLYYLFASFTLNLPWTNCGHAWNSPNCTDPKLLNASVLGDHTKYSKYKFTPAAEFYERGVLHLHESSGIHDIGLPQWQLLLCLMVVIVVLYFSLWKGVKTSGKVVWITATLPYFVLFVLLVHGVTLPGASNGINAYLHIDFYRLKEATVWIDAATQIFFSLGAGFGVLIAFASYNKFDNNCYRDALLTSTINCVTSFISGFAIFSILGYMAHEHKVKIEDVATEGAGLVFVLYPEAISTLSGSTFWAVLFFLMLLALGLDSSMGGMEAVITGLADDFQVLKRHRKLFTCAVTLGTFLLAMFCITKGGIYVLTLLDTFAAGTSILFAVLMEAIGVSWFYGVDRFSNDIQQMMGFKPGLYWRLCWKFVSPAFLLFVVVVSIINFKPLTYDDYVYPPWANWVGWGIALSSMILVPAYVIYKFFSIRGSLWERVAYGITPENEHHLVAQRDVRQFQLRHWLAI
SMILES,"IC50 [1, 5]",potency relative to MPH in drug discrimination [2],IC50 (DAT),potency relative to (±)-threo-4F-MPH at the norepinephrine transporter [3],IC50 [1],IC50 [4]
"COC(=O)[C@H](c1ccc(F)cc1)[C@H]1CCCCN1 (racemic) [(±)-threo-4F-MPH, 4-Fluoromethylphenidate]",8.8 µM,about three times more potent than MPH,0.035 µM,,,
"COC(=O)C(c1ccccc1)C1CCCCN1 (stereo not shown) [MPH, methyl-2-phenyl-2-(piperidin-2-yl)acetate]",,,,around 2.5,> 10 µM,0.131 ± 0.0142 µM
"COC(=O)[C@H](c1ccc(F)cc1)[C@H]1CCCCN1 (racemic) [(±)-erythro-4F-MPH, 4-Fluoromethylphenidate]",> 10 µM,,,,,
